“Also recorded” adds a separate entry of the source. Where two headings read alike, the source gives them in different places.
Assays:
[1] = tested on: patients with transient cerebral ischemic attack (TIA) / cerebral infarction; conditions: for recurrence of TIA / onset or recurrence of cerebral infarction during administration: administration continued for 337 days, single patients, hydrochloride
Experimental: The present invention will be explained according to the following examples in more detail. However, the scope of the invention is not limited to these examples.
A person. They occurred transient cerebral ischemic attack (TIA). From three days after the onset, treatment with 160 mg/day of Cataclot (Ono Pharmaceutical Co., Ltd.) was started and it was continued for 2 weeks.
A person. They occurred TIA.
A person. They occurred TIA. From three days after the onset, treatment with 81 mg/day of Kids Bufferin (Lion Corporation) was started and this treatment was continued for about one month.
(§1) A person. They occurred cerebral infarction.
A person. They occurred cerebral infarction and, ten months after the occurrence of TIA.
as §1
A person. They occurred cerebral infarction. […] From that day of the onset of TIA, they were hospitalized for one week and subjected to intravenous drip containing 1 g of Nicholin H (Takeda Chemical Industries, Ltd.) and administration of 300 mg/day of Panaldine (Daiichi Pharmaceutical Co., Ltd.).
A person. They occurred cerebral infarction. […] They occurred TIA two years after the onset of cerebral infarction. From that day of the onset of TIA, administration of 200 mg/day of Panaldine (Daiichi Pharmaceutical Co., Ltd.) and, in addition, 162 mg/day of Kids Bufferin (Lion Corporation) was started.
A person. They occurred cerebral infarction. […] Immediately after the recurrence, they were treated with fluid for supplementation, urokinase and 300 mg/day of Panaldine (Daiichi Pharmaceutical Co., Ltd.).

[2] = tested on: stroke, myocardial infarction and vascular death; conditions: 142 trials; cited from earlier work

In the case of COc1cccc(CCc2ccccc2OCC(CN(C)C)OC(=O)CCC(=O)O)c1.Cl (racemic) [sarpogrelate hydrochloride, (±)-1-[O-[2-(m-methoxyphenyl)ethyl]phenoxy]-3-(dimethylamino)-2-propyl hydrogensuccinate hydrochloride], the “recurrence of TIA / onset or recurrence of cerebral infarction during administration” value ([1]; 75 mg/day) is reported as “neither recurrence of TIA nor onset of cerebral infarction was observed; also recorded: recurrence of TIA and cerebral infarction was not observed”, the “recurrence of TIA / onset or recurrence of cerebral infarction during administration” value ([1]; 150 mg/day) is reported as “neither recurrence of TIA nor onset of cerebral infarction was observed; also recorded: recurrence of TIA and cerebral infarction was not observed” and the “recurrence of TIA and cerebral infarction during administration” value ([1]; 150 mg/day, administration continued for 496 days, single patient) is reported as “recurrence of TIA and cerebral infarction was not observed”. For the same molecule, the “recurrence of TIA / onset or recurrence of cerebral infarction during administration” value ([1]; 300 mg/day) was “neither recurrence of TIA nor onset of cerebral infarction was observed; also recorded: recurrence of TIA and cerebral infarction was not observed”.
In the case of CC(=O)Oc1ccccc1C(=O)O [aspirin], the “reduction ratio of odds concerning stroke, myocardial infarction and vascular death against the control group” value [2] is given as 25%.

Reference: patent publication US20040242687A1, “Thrombus/thrombogenesis inhibitors” (priority 2001, published 2004)
